Among the data in ChEMBL document CHEMBL5321200, “Discovery of the GSH responsive "Y-PROTACs" targeting ALK and CDK4/6 as a potential treatment for cancer” (Eur J Med Chem, 2023) are Activity, IC50 and EC50 values, retold here.

The target of series [1] is T1, Protein cereblon/Cyclin-dependent kinase 4 (Homo sapiens, UniProt P11802+Q96SW2). Nature of the series: PROTAC activity at CRBN/CDK4 in human NCI-H3122 cells assessed as induction of CDK4 protein degradation at 10 uM incubated for 24 hrs by Western blot analysis relative to control. Type of series: cell-based.
Target sequence in this assay (P11802 2-303 limits assumed): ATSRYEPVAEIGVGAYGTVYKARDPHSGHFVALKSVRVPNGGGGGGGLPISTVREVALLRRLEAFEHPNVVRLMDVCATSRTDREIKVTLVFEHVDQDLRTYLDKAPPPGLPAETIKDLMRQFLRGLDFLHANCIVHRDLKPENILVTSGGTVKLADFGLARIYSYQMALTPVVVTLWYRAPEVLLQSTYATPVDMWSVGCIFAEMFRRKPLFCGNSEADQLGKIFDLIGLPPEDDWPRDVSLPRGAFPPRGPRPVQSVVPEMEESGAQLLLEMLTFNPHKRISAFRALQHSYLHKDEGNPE
Target sequence in this assay (Q96SW2 whole entry partner): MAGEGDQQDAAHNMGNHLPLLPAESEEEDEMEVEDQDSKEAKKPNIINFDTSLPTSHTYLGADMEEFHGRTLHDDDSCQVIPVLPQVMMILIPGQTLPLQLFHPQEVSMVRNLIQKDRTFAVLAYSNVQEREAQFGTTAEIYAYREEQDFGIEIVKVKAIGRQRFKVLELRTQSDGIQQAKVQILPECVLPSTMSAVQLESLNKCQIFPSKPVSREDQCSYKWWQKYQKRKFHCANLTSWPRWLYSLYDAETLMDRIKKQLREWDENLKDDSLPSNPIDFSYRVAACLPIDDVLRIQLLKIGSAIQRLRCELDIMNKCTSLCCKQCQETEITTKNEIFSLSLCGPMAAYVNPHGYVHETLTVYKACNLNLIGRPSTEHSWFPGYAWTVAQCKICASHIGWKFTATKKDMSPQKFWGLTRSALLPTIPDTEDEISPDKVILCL
Series [2] has as its system NCI-H3122. Nature of the series: Induction of apoptosis in human NCI-H3122 cells assessed as late apoptotic cells at 2.5 uM incubated for 48 hrs by Annexin V-FITC/propidium iodide staining based flow cytometric analysis (reference value: 3.06%). The class given is functional.
The subject of series [3] is NCI-H3122. Nature of the series: Antiproliferative activity against human NCI-H3122 cells assessed as inhibition of cell growth incubated for 5 days by MTT assay. The class given is functional, cell-based. The note with it: NCI-H3122, 120 h. On the technique in general: Formazan colour is commonly taken as a measure of viable cells.
Series [4] relates to NCI-H2228. Nature of the series: Antiproliferative activity against human NCI-H2228 cells assessed as inhibition of cell growth incubated for 3 to 5 days by MTT assay. Type of series: functional, cell-based.
For series [5], the system named is NCI-H3122. Nature of the series: Induction of apoptosis in human NCI-H3122 cells assessed as necrotic cells at 0.625 uM incubated for 48 hrs by Annexin V-FITC/propidium iodide staining based flow cytometric analysis (reference value: 0.57%). Type of series: functional.
Series [6] deals with T1, Protein cereblon/Cyclin-dependent kinase 4. Nature of the series: PROTAC activity at CRBN/CDK4 in human NCI-H3122 cells assessed as reduction in CDK4 protein level incubated for 24 hrs by Western blot analysis. Type of series: cell-based. A general note: Immunoblotting shows a protein as a band on a membrane.
Target sequence in this assay (P11802 whole entry): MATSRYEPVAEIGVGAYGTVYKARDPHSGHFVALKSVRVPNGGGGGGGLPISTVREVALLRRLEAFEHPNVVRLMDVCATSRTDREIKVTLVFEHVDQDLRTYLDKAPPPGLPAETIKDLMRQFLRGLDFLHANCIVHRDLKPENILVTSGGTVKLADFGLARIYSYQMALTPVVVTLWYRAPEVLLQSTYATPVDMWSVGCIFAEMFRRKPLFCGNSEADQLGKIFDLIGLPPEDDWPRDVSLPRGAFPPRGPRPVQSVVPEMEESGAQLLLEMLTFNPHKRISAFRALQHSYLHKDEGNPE
Target sequence in this assay (Q96SW2 whole entry): as the sequence (Q96SW2 whole entry partner) above
Series [7] in a line: Toxicity in BALB/c nude mouse xenografted with human NCI-H3122 cells assessed as effect on visceral liver morphology at 75 mg/kg, IG administered once daily for 18 days and measured after 12 hrs of last dose by H and E staining based analysis. Type of series: organism-based. The note with it: in vivo, po, 444 h. Background: A xenograft is tissue or cells of one species grown in another, often human tumour cells in immunodeficient mice.

The nature of series [8]: Toxicity in BALB/c nude mouse xenografted with human NCI-H3122 cells assessed as effect on visceral heart morphology at 75 mg/kg, IG administered once daily for 18 days and measured after 12 hrs of last dose by H and E staining based analysis. The note with it: in vivo, po, 444 h. Type of series: organism-based.
Series [9] is described as follows: Toxicity in BALB/c nude mouse xenografted with human NCI-H3122 cells assessed as effect on visceral lung morphology at 75 mg/kg, IG administered once daily for 18 days and measured after 12 hrs of last dose by H and E staining based analysis. Type of series: organism-based. The note with it: in vivo, po, 444 h.

Regarding `CC(=O)c1c(C)c2cnc(Nc3ccc(N4CCN(CC(=O)NCCSSCCN(CC(=O)NCCNc5cccc6c5C(=O)N(C5CCC(=O)NC5=O)C6=O)C(=O)CCCCCCC(=O)N5CCC(c6cc(OC(C)C)c(Nc7ncc(Cl)c(Nc8ccccc8S(=O)(=O)C(C)C)n7)cc6C)CC5)CC4)cn3)nc2n(C2CCCC2)c1=O` (centres undefined), the Activity in series [1] was 70%; in series [2], 15.81%; in [5] it was 2.11%; in series [7], “Non-Toxic”; in series [8] it was “Non-Toxic”; in [9], “Non-Toxic”. For the same compound, the half-inhibitory concentration (IC50) (as a rule, the concentration at which inhibition is half-maximal) stood at 0.11 µM in series [3] and 5.56 µM in series [4]. Besides, the EC50 (usually the concentration giving half of the maximal effect) in [6] stood at 3.69 µM.
